Test results from ChEMBL document CHEMBL4627415, “Design and Structural Optimization of Dual FXR/PPARδ Activators” (J Med Chem, 2020).
Values after ≈ are worked out from the molar mass of the structure shown. Active and inactive are the calls of the source. No cut-off for these calls is given here.

Tests used:
[1] = biological target: T1, Retinoic acid receptor alpha (Homo sapiens) (UniProt P10276); assay: Activation of human RAR-alphaLBD expressed in HEK293T cells assessed as induction of receptor activation at 10 uM incubated for 12 to 14 hrs by luciferase reporter gene assay; assay type: cell-based; settings: HEK-293T
T1 sequence (whole entry): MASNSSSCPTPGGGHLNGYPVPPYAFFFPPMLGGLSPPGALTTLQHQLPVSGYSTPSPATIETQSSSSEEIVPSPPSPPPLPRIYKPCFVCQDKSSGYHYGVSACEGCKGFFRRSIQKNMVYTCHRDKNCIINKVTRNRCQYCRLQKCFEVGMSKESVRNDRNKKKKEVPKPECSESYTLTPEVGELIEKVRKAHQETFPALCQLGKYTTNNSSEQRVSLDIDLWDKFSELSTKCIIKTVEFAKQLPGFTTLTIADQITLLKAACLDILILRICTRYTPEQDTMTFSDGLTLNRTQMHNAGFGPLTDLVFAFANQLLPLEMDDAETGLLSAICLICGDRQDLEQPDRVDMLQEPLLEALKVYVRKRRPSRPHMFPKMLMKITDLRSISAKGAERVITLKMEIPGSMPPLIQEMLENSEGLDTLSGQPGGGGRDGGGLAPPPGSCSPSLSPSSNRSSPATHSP

[2] = biological target: T2, Bile acid receptor (Homo sapiens) (UniProt Q96RI1); assay: Activation of human FXR LBD expressed in HEK293T cells assessed as induction of receptor activation at 1 to 3 uM incubated for 12 to 14 hrs by luciferase reporter gene assay; assay type: cell-based; settings: HEK-293T
T2 sequence (whole entry): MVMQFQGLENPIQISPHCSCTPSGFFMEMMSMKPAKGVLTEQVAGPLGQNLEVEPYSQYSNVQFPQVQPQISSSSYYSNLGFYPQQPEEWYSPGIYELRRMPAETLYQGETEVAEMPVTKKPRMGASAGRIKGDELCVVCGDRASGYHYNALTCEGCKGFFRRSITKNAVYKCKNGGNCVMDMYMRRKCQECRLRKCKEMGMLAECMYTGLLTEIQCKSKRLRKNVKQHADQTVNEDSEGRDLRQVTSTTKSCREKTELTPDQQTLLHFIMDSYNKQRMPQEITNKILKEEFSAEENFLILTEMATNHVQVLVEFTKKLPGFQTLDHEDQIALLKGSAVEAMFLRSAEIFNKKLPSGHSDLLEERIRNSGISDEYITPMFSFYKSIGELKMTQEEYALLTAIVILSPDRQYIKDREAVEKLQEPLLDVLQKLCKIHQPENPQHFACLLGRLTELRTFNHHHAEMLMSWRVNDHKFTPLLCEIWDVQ

[3] = Aqueous solubility in pH 8 buffer by HPLC analysis; assay type: physicochemical

Activity [1]: inactive
Activity [2]: Active
solubility [3]: 159 µg/mL (≈ 284 µM)
Compound: CC(C)c1onc(-c2c(Cl)cccc2Cl)c1COc1ccc(CNc2ccc(CC(=O)O)cc2)c(Cl)c1
